Data reported in US12570671B2 (BRISTOL-MYERS SQUIBB COMPANY, priority 2020, dated 2026).

Columns and labels:
[1] = molecular target: Helios (Homo sapiens, UniProt Q96SW2+Q9UKS7); test: Helios Cellular Degradation Assay (Helios readout); assay type: cell-based; parameters: endogenous in cells; host or cells: Jurkat; conditions: Jurkat cells, 72 h incubation, Helios-PE antibody staining, flow cytometry; read-out: Helios Jurkat IC50
Procedure: (§1) Jurkat cells were plated at 80,000 cells/well in 40 μL RPMI+10% FBS in a 384 well cell culture plate prior to using acoustic dispensing technology for adding compound of interest. Cell cultures were incubated for 72 h at 37° C. and 5% C02. In order to facilitate analysis, cell cultures were spun down at 200 rpm for 5 min and the supernatant was discarded. After shaking the plate to dislodge the cell pellet, cells were resuspended in 50 μL of Fixation Buffer (eBioScience FoxP3 buffer set 00-5523-00) for 60 min at room temperature. After centrifuging and discarding the supernatant, cells were permeabilized with 50 μL of Permeabilization buffer (eBioScience FoxP3 buffer set 00-5523-00) for 10 min at room temperature. Following permeabilization, cells were spun down and the supernatant was replaced with 20 μL fluorescently labelled antibodies against Helios, Ikaros and Aiolos or corresponding Isotype controls in 1× Permeabilization buffer (Ikaros-Alexa488 [Biolegend, Cat #368408, 1:50], Helios-PE [CST, Cat #29360, 1:50], Aiolos-Alexa647 [Biolegend, Cat #371106Biolegend, 1:25]) and staining reactions were incubated for 1 h at room temperature; protected from light. Subsequently, 30 μL of 1× Permeabilization buffer was added prior to centrifuging the cells and discarding the supernatant. Stained cells were resuspended in 25 μL of flow cytometry staining buffer (PBS+0.2% BSA) and analyzed using an Intellicyt Ique Plus flow cytometer.

[2] = molecular target: Ikaros (Homo sapiens, UniProt Q13422+Q96SW2); test: Helios Cellular Degradation Assay (Ikaros readout); assay type: cell-based; parameters: endogenous in cells; host or cells: Jurkat; conditions: Jurkat cells, 72 h incubation, Ikaros-Alexa488 antibody staining, flow cytometry; read-out: Ikaros Jurkat IC50
Ikaros, sequence (Q13422 whole entry): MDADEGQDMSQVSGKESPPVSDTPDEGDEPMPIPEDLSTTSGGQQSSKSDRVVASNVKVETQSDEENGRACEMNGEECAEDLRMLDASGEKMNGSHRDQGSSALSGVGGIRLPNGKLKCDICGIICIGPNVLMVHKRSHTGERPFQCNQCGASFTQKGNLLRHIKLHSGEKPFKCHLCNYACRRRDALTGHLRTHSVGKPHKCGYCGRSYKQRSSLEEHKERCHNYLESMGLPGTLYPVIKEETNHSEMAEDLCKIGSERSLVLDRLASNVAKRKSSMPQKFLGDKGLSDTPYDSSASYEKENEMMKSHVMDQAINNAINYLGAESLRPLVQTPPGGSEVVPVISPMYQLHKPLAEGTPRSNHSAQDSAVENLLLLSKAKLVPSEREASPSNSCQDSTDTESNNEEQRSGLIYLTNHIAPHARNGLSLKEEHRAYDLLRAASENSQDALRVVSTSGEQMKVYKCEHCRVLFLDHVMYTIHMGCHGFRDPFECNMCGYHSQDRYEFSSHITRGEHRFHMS
Ikaros, sequence (Q96SW2 whole entry): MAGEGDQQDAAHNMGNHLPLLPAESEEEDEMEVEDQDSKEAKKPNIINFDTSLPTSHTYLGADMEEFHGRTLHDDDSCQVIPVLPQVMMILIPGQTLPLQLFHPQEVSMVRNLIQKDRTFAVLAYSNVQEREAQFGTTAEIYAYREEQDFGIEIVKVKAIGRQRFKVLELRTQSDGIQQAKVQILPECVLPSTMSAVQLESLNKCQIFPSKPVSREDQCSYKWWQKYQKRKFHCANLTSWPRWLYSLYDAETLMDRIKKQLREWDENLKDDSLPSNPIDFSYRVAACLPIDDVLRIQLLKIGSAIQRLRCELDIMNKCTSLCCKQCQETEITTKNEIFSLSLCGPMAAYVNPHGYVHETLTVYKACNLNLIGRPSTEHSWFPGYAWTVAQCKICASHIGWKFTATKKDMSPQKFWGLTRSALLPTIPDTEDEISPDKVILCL
Ikaros, sequence (Q16531 whole entry partner): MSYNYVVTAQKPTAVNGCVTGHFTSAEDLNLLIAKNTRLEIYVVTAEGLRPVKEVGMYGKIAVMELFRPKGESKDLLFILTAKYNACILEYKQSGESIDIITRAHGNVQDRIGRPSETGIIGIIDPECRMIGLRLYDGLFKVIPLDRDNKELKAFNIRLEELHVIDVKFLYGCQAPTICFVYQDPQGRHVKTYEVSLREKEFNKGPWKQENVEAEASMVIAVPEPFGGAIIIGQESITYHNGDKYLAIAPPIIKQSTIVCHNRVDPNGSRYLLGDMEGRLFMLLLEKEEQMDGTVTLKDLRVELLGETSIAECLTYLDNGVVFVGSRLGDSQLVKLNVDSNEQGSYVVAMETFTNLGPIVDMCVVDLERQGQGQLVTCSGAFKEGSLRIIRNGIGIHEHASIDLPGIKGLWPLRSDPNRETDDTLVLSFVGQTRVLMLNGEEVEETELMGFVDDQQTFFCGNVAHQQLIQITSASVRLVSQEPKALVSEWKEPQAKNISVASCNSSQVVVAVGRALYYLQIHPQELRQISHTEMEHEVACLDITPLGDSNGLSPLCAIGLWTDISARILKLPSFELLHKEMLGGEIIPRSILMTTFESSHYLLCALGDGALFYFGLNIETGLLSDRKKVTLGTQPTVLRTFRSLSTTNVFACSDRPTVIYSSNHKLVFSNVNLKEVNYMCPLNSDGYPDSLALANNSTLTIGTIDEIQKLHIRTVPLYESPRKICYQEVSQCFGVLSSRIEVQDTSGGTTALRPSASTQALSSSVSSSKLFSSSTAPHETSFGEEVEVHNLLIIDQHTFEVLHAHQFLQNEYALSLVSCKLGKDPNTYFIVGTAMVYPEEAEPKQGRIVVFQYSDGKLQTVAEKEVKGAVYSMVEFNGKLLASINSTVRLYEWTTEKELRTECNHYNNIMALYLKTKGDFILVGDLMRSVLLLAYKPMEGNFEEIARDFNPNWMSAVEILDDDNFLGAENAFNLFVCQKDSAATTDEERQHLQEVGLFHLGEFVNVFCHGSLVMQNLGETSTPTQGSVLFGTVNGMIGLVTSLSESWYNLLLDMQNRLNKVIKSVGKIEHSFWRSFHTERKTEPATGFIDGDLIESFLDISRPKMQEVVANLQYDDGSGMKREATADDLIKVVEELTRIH
Procedure: as §1

Helios, sequence (Q9UKS7 whole entry): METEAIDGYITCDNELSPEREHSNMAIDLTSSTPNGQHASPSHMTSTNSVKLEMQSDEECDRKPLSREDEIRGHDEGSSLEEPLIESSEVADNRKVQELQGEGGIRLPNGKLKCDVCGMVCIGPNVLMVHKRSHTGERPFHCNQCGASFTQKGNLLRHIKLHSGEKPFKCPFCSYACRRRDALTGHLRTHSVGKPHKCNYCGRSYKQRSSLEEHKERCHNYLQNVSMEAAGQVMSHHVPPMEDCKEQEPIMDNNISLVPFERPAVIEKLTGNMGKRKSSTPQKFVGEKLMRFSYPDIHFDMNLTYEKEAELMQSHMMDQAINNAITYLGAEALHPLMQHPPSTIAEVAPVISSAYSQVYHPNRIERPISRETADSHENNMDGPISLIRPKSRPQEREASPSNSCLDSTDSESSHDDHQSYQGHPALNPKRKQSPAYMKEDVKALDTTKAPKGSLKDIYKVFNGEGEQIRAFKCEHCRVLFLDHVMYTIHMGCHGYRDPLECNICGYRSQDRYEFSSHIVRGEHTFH
Helios, sequence (Q96SW2 whole entry): as the sequence (Q96SW2 whole entry) above
Helios, sequence (Q16531 whole entry partner): as the sequence (Q16531 whole entry partner) above

Row | SMILES | DC50 [1] [nM] | DC50 [2] [nM]
1 | O=C1CCC(N2Cc3cc(-c4ccc5ccccc5n4)ccc3C2=O)C(=O)N1 (stereo not drawn) [Example 1, 3-(1-Oxo-5-(quinolin-2-yl)isoindolin-2-yl)piperidine-2,6-dione] | 34 | > 20000
2 | Nc1c(-c2ccc3c(c2)CN(C2CCC(=O)NC2=O)C3=O)ncc2ccccc12 (stereo not drawn) [Example 2, 3-(5-(4-Aminoisoquinolin-3-yl)-1-oxoisoindolin-2-yl)piperidine-2,6-dione] | 370 | 13700
3 | O=C1CCC(N2Cc3cc(-c4ncnc5c4oc4ccccc45)ccc3C2=O)C(=O)N1 (stereo not drawn) [Example 3, 3-(5-{8-oxa-3,5-diazatricyclo[7.4.0.0^2,7]trideca-1(9),2,4,6,10,12-hexaen-6-yl}-1-oxo-2,3-dihydro-1H-isoindol-2-yl)piperidine-2,6-dione] | 36 | > 20000
4 | Nc1nc(-c2ccc3c(c2)CN(C2CCC(=O)NC2=O)C3=O)cc2ccccc12 (stereo not drawn) [Example 4, 3-[5-(1-aminoisoquinolin-3-yl)-1-oxo-2,3-dihydro-1H-isoindol-2-yl]piperidine-2,6-dione] | 6 | > 20000
5 | Nc1nc2ccccc2nc1-c1ccc2c(c1)CN(C1CCC(=O)NC1=O)C2=O (stereo not drawn) [Example 5, 3-[5-(3-aminoquinoxalin-2-yl)-1-oxo-2,3-dihydro-1H-isoindol-2-yl]piperidine-2,6-dione] | > 20000 | > 20000
6 | O=C1CCC(N2Cc3cc(-c4cc5cc[nH]c5nn4)ccc3C2=O)C(=O)N1 (stereo not drawn) [Example 6, 3-(1-oxo-5-{7H-pyrrolo[2,3-c]pyridazin-3-yl}-2,3-dihydro-1H-isoindol-2-yl)piperidine-2,6-dione] | 140 | > 20000
7 | O=C1CCC(N2Cc3cc(-c4cnc5ccccc5n4)ccc3C2=O)C(=O)N1 (stereo not drawn) [Example 7, 3-[1-oxo-5-(quinoxalin-2-yl)-2,3-dihydro-1H-isoindol-2-yl]piperidine-2,6-dione] | 73 | > 20000
8 | Nc1cc(-c2ccc3c(c2)CN(C2CCC(=O)NC2=O)C3=O)nc2ccccc12 (stereo not drawn) [Example 8, 3-[5-(4-aminoquinolin-2-yl)-1-oxo-2,3-dihydro-1H-isoindol-2-yl]piperidine-2,6-dione] | 25 | > 20000
9 | O=C1CCC(N2Cc3cc(-c4ncc5ccccc5n4)ccc3C2=O)C(=O)N1 (stereo not drawn) [Example 9, 3-[1-oxo-5-(quinazolin-2-yl)-2,3-dihydro-1H-isoindol-2-yl]piperidine-2,6-dione] | 27 | > 20000
10 | CCC(C)Nc1nc2ccc(-c3ccc4c(c3)CN(C3CCC(=O)NC3=O)C4=O)nc2s1 (stereo not drawn) [Example 10, 3-(5-{2-[(butan-2-yl)amino]-[1,3]thiazolo[5,4-b]pyridin-5-yl}-1-oxo-2,3-dihydro-1H-isoindol-2-yl)piperidine-2,6-dione] | 100 | > 20000
11 | O=C1CCC(N2Cc3cc(-c4ncc(F)c5[nH]ccc45)ccc3C2=O)C(=O)N1 (stereo not drawn) [Example 11, 3-(5-{7-fluoro-1H-pyrrolo[3,2-c]pyridin-4-yl}-1-oxo-2,3-dihydro-1H-isoindol-2-yl)piperidine-2,6-dione] | 42 | 97
12 | COc1cc(-c2ccc3c(c2)CN(C2CCC(=O)NC2=O)C3=O)nc2ccccc12 (stereo not drawn) [Example 12, 3-[5-(4-methoxyquinolin-2-yl)-1-oxo-2,3-dihydro-1H-isoindol-2-yl]piperidine-2,6-dione] | 38 | > 20000
13 | O=C1CCC(N2Cc3cc(-c4cc(-c5ccccc5)c5ccccc5n4)ccc3C2=O)C(=O)N1 (stereo not drawn) [Example 13, 3-[1-oxo-5-(4-phenylquinolin-2-yl)-2,3-dihydro-1H-isoindol-2-yl]piperidine-2,6-dione] | 750 | > 20000
14 | O=C1CCC(N2Cc3cc(-c4cc(C(=O)NC5CC5)c5ccccc5n4)ccc3C2=O)C(=O)N1 (stereo not drawn) [Example 14, N-cyclopropyl-2-[2-(2,6-dioxopiperidin-3-yl)-1-oxo-2,3-dihydro-1H-isoindol-5-yl]quinoline-4-carboxamide] | 400 | > 20000
15 | CCN(CC)c1nc(-c2ccc3c(c2)CN(C2CCC(=O)NC2=O)C3=O)nc2ccc(Cl)cc12 (stereo not drawn) [Example 15, 3-{5-[6-chloro-4-(diethylamino)quinazolin-2-yl]-1-oxo-2,3-dihydro-1H-isoindol-2-yl}piperidine-2,6-dione] | > 20000 | > 20000
16 | COc1cc2nc(-c3ccc4c(c3)CN(C3CCC(=O)NC3=O)C4=O)nc(N)c2cc1OC (stereo not drawn) [Example 16, 3-[5-(4-amino-6,7-dimethoxyquinazolin-2-yl)-1-oxo-2,3-dihydro-1H-isoindol-2-yl]piperidine-2,6-dione] | 30 | > 20000
17 | COc1ccc2c(-c3ccc4c(c3)CN(C3CCC(=O)NC3=O)C4=O)nccc2c1 (stereo not drawn) [Example 17, 3-[5-(6-methoxyisoquinolin-1-yl)-1-oxo-2,3-dihydro-1H-isoindol-2-yl]piperidine-2,6-dione] | 14 | 96
18 | O=C1CCC(N2Cc3cc(-c4cnc5cc(Cl)ccc5n4)ccc3C2=O)C(=O)N1 (stereo not drawn) [Example 18, 3-[5-(6-chloroquinoxalin-2-yl)-1-oxo-2,3-dihydro-1H-isoindol-2-yl]piperidine-2,6-dione] | 120 | > 20000
19 | O=C1CCC(N2Cc3cc(-c4nccc5ccc(F)cc45)ccc3C2=O)C(=O)N1 (stereo not drawn) [Example 19, 3-[5-(7-fluoroisoquinolin-1-yl)-1-oxo-2,3-dihydro-1H-isoindol-2-yl]piperidine-2,6-dione] | 30 | 140
20 | CC(C)(C)Cn1ccc(=O)c2c(N)nc(-c3ccc4c(c3)CN(C3CCC(=O)NC3=O)C4=O)cc21 (stereo not drawn) [Example 46, 3-{5-[5-Amino-1-(2,2-dimethylpropyl)-4-oxo-1,4-dihydro-1,6-naphthyridin-7-yl]-1-oxo-2,3-dihydro-1H-isoindol-2-yl}piperidine-2,6-dione] | 3 | 
21 | N#Cc1cc2ccccc2c(-c2ccc3c(c2)CN(C2CCC(=O)NC2=O)C3=O)n1 (stereo not drawn) [Example 59, 1-[2-(2,6-dioxopiperidin-3-yl)-1-oxo-2,3-dihydro-1H-isoindol-5-yl]isoquinoline-3-carbonitrile] | 24 | 
22 | CNc1nc(-c2ccc3c(c2)CN(C2CCC(=O)NC2=O)C3=O)cc2c1ncn2C (stereo not drawn) [Example 61, 3-{5-[1-methyl-4-(methylamino)-1H-imidazo[4,5-c]pyridin-6-yl]-1-oxo-2,3-dihydro-1H-isoindol-2-yl}piperidine-2,6-dione] | 7 | 
23 | O=C1CCC(N2Cc3cc(-c4nc5ccccc5nc4C4CC4)ccc3C2=O)C(=O)N1 (stereo not drawn) [Example 97, 3-(5-(3-cyclopropylquinoxalin-2-yl)-1-oxoisoindolin-2-yl)piperidine-2,6-dione] | 90 | 
24 | CCCc1cc(-c2ccc3c(c2)CN(C2CCC(=O)NC2=O)C3=O)nc(N)c1C#N (stereo not drawn) [Example 172, 2-amino-6-(2-(2,6-dioxopiperidin-3-yl)-1-oxoisoindolin-5-yl)-4-propylnicotinonitrile] | 30 | 
25 | N#Cc1c(C(F)F)cc(N)nc1-c1ccc2c(c1)CN(C1CCC(=O)NC1=O)C2=O (stereo not drawn) [Example 174, 6-amino-4-(difluoromethyl)-2-(2-(2,6-dioxopiperidin-3-yl)-1-oxoisoindolin-5-yl) nicotinonitrile] | 350 | 
26 | N#Cc1c(C(F)(F)F)cc(-c2ccc3c(c2)CN(C2CCC(=O)NC2=O)C3=O)nc1N (stereo not drawn) [Example 177, 2-amino-6-(2-(2,6-dioxopiperidin-3-yl)-1-oxoisoindolin-5-yl)-4-(trifluoromethyl)nicotine-nitrile] | 40 | 
